Results reported in patent publication US12617818B2, “Compositions and methods for modulating myosin subfragment-2 coiled coil stability and methods for using them” (UNIVERSITY OF NORTH TEXAS, priority 2020, dated 2026).
Entries after “also recorded” stand apart in the source; their conditions may differ.

Target: T1, smooth muscle myosin S2 peptide (MYH11) (Homo sapiens, UniProt P35749)
T1 construct: host or cells: chemical synthesis
T1 sequence (P35749 with tags, fused parts or gaps): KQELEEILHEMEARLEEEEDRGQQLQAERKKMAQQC
Experiment: GFS, uncoiling of smooth myosin S2 peptide dimer
Assay type: biochemical
Conditions: for impact on mechanical stability of smooth muscle myosin S2 peptide: force distance curve vs control; for Force required to uncoil S2 molecule: length 10 nm, in presence of the anti-S2 peptide, ± SEM
Text: 3-aminopropyltriethoxysilane, acetone, coupling buffer (0.01 M pyridine in water with pH 6.0), 5% glutaraldehyde, quenching solution (1 M glycine in water with pH 7.0), blocking buffer (0.01 M Tris, 0.1% sodium azide, 0.1% bovine serum albumin, 0.15 M sodium chloride, and 0.001 M ethylenediaminetetraacetic acid with pH 7.0), wash buffer (0.01 M Tris, 0.1% sodium azide, 0.15 M sodium chloride, and 0.001 M ethylenediaminetetraacetic acid with pH 7.0) low salt buffer (0.1 M potassium chloride, 0.02 M imidazole, 5 mM magnesium chloride, with pH 7.0), 1-ethyl-3-(3-dimethyaminopropyl) carbodiimide, N-hydroxysuccinamide, iodoacetamide-succinimidyl ester, 8M urea solution (50 mM imidazole and 0.1 mM tris (2-carboxyethyl) phosphine with pH 7.0) monodisperse silica beads, glass slides, glass coverslips, vacuum grease, rabbit skeletal myosin, purified actin (G-actin), 1 μM human β-cardiac myosin S2 peptide, 1 μM human β-cardiac mutants myosin S2 peptide (E930del and E924K), 1 μM human skeletal myosin S2 peptide, 1 μM human smooth myosin S2 peptide, stabilizer peptide, and destabilizer peptide. A light microscope with an objective lens of 10× was mounted on an alt-azimuthal mount. A digital video camera of Sony, XCD-V60 was replaced with the ocular lenses. Extension springs on steel bracket held the alt-azimuthal mount suspended.
Gravitational force spectroscopy (GFS), is a single molecule force spectroscopy that utilizes gravitational force to measure absolute length of a single molecule at the given force calculated by the density of the bead suspending the molecule. This technique was discovered and developed in Root lab, which measures the forces in piconewton and sub-piconewton levels. Other than absolute length of a molecule, GFS measures force range required to uncoil, stretch or extend the molecule yielding a force-distance profile for the suspended molecule. Besides that, based on the force-distance profile, number of amino acids within the molecule can be calculated. […] The GFS allowed to test the flexibility or stability of a single molecule of myosin S2 peptide and also for the S2 peptides treated with anti-S2 peptides. Flexibility of myosin S2 is not dependent on assembly myosin as a thick filament or myosin in its single molecule form. […]
Free fall mode, another measurement variant of GFS which allows the user to get a force distance profile on a single molecule experiencing the gravitational force. […] During the free fall mode, GFS has a single molecule which is suspended within an immobile edge and mobile bead will now experience the variable force which would be calculated by the product of mass of the bead and the acceleration of the GFS. […]

Force required to uncoil S2 molecule [pN]	Structure (SMILES)	impact on mechanical stability of smooth muscle myosin S2 peptide
4.51E−01 ± 2.98E−02	CSCC[C@H](NC(=O)[C@H](CCC(=O)O)NC(=O)[C@H](CCCNC(=N)N)NC(=O)[C@H](CCC(=O)O)NC(=O)[C@H](CC(=O)O)NC(=O)[C@H](CCC(=O)O)NC(=O)[C@H](CC(C)C)NC(=O)[C@H](CCCNC(=N)N)NC(=O)[C@H](CCC(=O)O)NC(=O)[C@H](CC(N)=O)NC(=O)[C@H](CCSC)NC(=O)[C@@H](N)CCC(=O)O)C(=O)N[C@@H](CCCCN)C(=O)N[C@@H](C)C(=O)N[C@@H](CCC(=O)O)C(=O)N[C@@H](CC(C)C)C(=O)N[C@H](C(=O)N[C@@H](C)C(=O)N[C@@H](CCCCN)C(=O)O)[C@@H](C)O [Destabilizer]	do not have an impact
4.96E−01 ± 7.60E−02	C[C@H](NC(=O)[C@H](CCCCN)NC(=O)[C@H](Cc1ccccc1)NC(=O)[C@H](CCCCN)NC(=O)[C@H](CCCCN)NC(=O)[C@H](CCCCN)NC(=O)[C@H](CCCCN)NC(=O)[C@H](CCCCN)NC(=O)[C@H](CCCCN)NC(=O)[C@H](CCCCN)NC(=O)[C@@H](N)CCCCN)C(=O)N[C@@H](CCCCN)C(=O)N[C@@H](CCCCN)C(=O)N[C@@H](CCCCN)C(=O)N[C@@H](CCCCN)C(=O)N[C@@H](CCCCN)C(=O)N[C@@H](CCCCN)C(=O)O [Stabilizer]	do not have an impact; also recorded: no effect
